For seven cell lines, relative viability results are on record in the supplement of paper PMC10307832.

Experiment in all cases: relative viability (nuclei count vs DMSO), 5 days (fraction); higher = more cells survive
Compound in the experiment “Dasatinib + Pictilisib”: Cc1nc(Nc2ncc(C(=O)Nc3c(C)cccc3Cl)s2)cc(N2CCN(CCO)CC2)n1 [Dasatinib] + CS(=O)(=O)N1CCN(Cc2cc3nc(-c4cccc5[nH]ncc45)nc(N4CCOCC4)c3s2)CC1 [Pictilisib] (partner 1 µM)
In short, it runs like this: (§1)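 Nuclei were stained with Hoechst during a one-step fixation (final 0.05% Triton X-100, 1% formaldehyde, 1 ug/ml Hoechst) carried out 5 days after dosing, then counted on 4× images. The cells, lung cancer lines in 1536-well plates, had been dosed by pin tool the day after seeding with one drug alone or a fixed anchor-drug dose plus five library-drug doses (not always all listed) in √10 steps. Relative viability is the nuclei count in treated wells divided by that in vehicle wells, and each value is the median of duplicate plates.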

Compound in the experiment “ALW-II-49-7 + Foretinib”: Cc1ccc(C(=O)Nc2cccc(C(F)(F)F)c2)cc1Nc1cncc(C(N)=O)c1 [ALW-II-49-7] + COc1cc2c(Oc3ccc(NC(=O)C4(C(=O)Nc5ccc(F)cc5)CC4)cc3F)ccnc2cc1OCCCN1CCOCC1 [Foretinib] (partner 0.25 µM)
An outline of the steps: as §1

Compound in the experiment “ALW-II-49-7 + Linsitinib”: Cc1ccc(C(=O)Nc2cccc(C(F)(F)F)c2)cc1Nc1cncc(C(N)=O)c1 [ALW-II-49-7] + C[C@]1(O)C[C@@H](c2nc(-c3ccc4ccc(-c5ccccc5)nc4c3)c3c(N)nccn32)C1 [Linsitinib] (partner 1 µM)
In short, it runs like this:
as §1

Compound in the experiment “XMD13-2 + AZD7762”: C1CC1C(=O)NC2=NNC3=C2C=CC(=C3)C4=CC(=CC=C4)C(=O)NC5CC5 [XMD13-2] + NC(=O)Nc1cc(-c2cccc(F)c2)sc1C(=O)N[C@H]1CCCNC1 [AZD7762] (partner 0.2 µM)
In short, it runs like this:
as §1

As for NCI-H2126, the relative viability with Dasatinib + Pictilisib (first compound 0.005 µM) was found to be 0.512; with Dasatinib + Pictilisib (first compound 0.01581 µM) it was 0.446; with Dasatinib + Pictilisib (first compound 0.05 µM), 0.443; with Dasatinib + Pictilisib (first compound 0.1581 µM), 0.387; with Dasatinib + Pictilisib (first compound 0.5 µM), 0.288; with ALW-II-49-7 + Foretinib (first compound 0.08 µM), 0.805. The relative viability with ALW-II-49-7 + Foretinib (first compound 0.253 µM) came out at 0.998; in the experiment with ALW-II-49-7 + Foretinib (first compound 0.8 µM) it was 1.21; with ALW-II-49-7 + Foretinib (first compound 2.53 µM), 0.998; with ALW-II-49-7 + Foretinib (first compound 8 µM), 1.11; with ALW-II-49-7 + Linsitinib (first compound 0.08 µM), 0.656; with ALW-II-49-7 + Linsitinib (first compound 0.253 µM) it was 0.733. Moreover, the relative viability with ALW-II-49-7 + Linsitinib (first compound 0.8 µM) turned out to be 0.746; with ALW-II-49-7 + Linsitinib (first compound 2.53 µM), 0.7; with ALW-II-49-7 + Linsitinib (first compound 8 µM) it was 0.717; with XMD13-2 + AZD7762 (first compound 0.05 µM), 1.1; with XMD13-2 + AZD7762 (first compound 0.1581 µM), 1.04; in the experiment with XMD13-2 + AZD7762 (first compound 0.5 µM), 0.98. For the same cell line, the relative viability with XMD13-2 + AZD7762 (first compound 1.581 µM) stood at 1.04; with XMD13-2 + AZD7762 (first compound 5 µM), 0.996.

Regarding NCI-H2347, the relative viability in the experiment with Dasatinib + Pictilisib (first compound 0.005 µM) was found to be 0.419; with Dasatinib + Pictilisib (first compound 0.01581 µM), 0.328; with Dasatinib + Pictilisib (first compound 0.05 µM), 0.316; with Dasatinib + Pictilisib (first compound 0.1581 µM) it was 0.493; with Dasatinib + Pictilisib (first compound 0.5 µM), 0.347; with ALW-II-49-7 + Foretinib (first compound 0.08 µM), 1.1. Further, the relative viability with ALW-II-49-7 + Foretinib (first compound 0.253 µM) was found to be 1.04; in the experiment with ALW-II-49-7 + Foretinib (first compound 0.8 µM), 0.906; with ALW-II-49-7 + Foretinib (first compound 2.53 µM), 0.227; with ALW-II-49-7 + Foretinib (first compound 8 µM) it was 0.844; with ALW-II-49-7 + Linsitinib (first compound 0.08 µM) it was 1; with ALW-II-49-7 + Linsitinib (first compound 0.253 µM), 0.974. Moreover, the relative viability with ALW-II-49-7 + Linsitinib (first compound 0.8 µM) worked out at 1.08; with ALW-II-49-7 + Linsitinib (first compound 2.53 µM), 0.868; with ALW-II-49-7 + Linsitinib (first compound 8 µM), 0.737; in the experiment with XMD13-2 + AZD7762 (first compound 0.05 µM), 0.971; with XMD13-2 + AZD7762 (first compound 0.1581 µM), 0.759; with XMD13-2 + AZD7762 (first compound 0.5 µM), 0.888. In addition, the relative viability in the experiment with XMD13-2 + AZD7762 (first compound 1.581 µM) came out at 0.735; with XMD13-2 + AZD7762 (first compound 5 µM), 0.822.

NCI-H2405: the relative viability with Dasatinib + Pictilisib (first compound 0.005 µM) worked out at 0.353; with Dasatinib + Pictilisib (first compound 0.01581 µM) it was 0.294; in the experiment with Dasatinib + Pictilisib (first compound 0.05 µM), 0.261; with Dasatinib + Pictilisib (first compound 0.1581 µM), 0.197; with Dasatinib + Pictilisib (first compound 0.5 µM), 0.16; with ALW-II-49-7 + Foretinib (first compound 0.08 µM), 1.03. Moreover, the relative viability worked out at 1.06 with ALW-II-49-7 + Foretinib (first compound 0.253 µM); 0.998 with ALW-II-49-7 + Foretinib (first compound 0.8 µM); 0.847 in the experiment with ALW-II-49-7 + Foretinib (first compound 2.53 µM); 0.895 in the experiment with ALW-II-49-7 + Foretinib (first compound 8 µM); 0.892 with ALW-II-49-7 + Linsitinib (first compound 0.08 µM); 1.01 in the experiment with ALW-II-49-7 + Linsitinib (first compound 0.253 µM). Also, the relative viability stood at 0.958 with ALW-II-49-7 + Linsitinib (first compound 0.8 µM); 0.376 in the experiment with ALW-II-49-7 + Linsitinib (first compound 2.53 µM); 0.9 with ALW-II-49-7 + Linsitinib (first compound 8 µM); 0.849 in the experiment with XMD13-2 + AZD7762 (first compound 0.05 µM); 0.712 with XMD13-2 + AZD7762 (first compound 0.1581 µM); 0.728 with XMD13-2 + AZD7762 (first compound 0.5 µM). Besides, in the experiment with XMD13-2 + AZD7762 (first compound 5 µM), the relative viability is 0.8.

As to NCI-H3122, the relative viability with Dasatinib + Pictilisib (first compound 0.005 µM) worked out at 0.704; in the experiment with Dasatinib + Pictilisib (first compound 0.01581 µM), 0.753; in the experiment with Dasatinib + Pictilisib (first compound 0.05 µM), 0.755; with Dasatinib + Pictilisib (first compound 0.1581 µM), 0.614; in the experiment with Dasatinib + Pictilisib (first compound 0.5 µM), 0.445; with ALW-II-49-7 + Foretinib (first compound 0.08 µM) it was 1.06. The relative viability with ALW-II-49-7 + Foretinib (first compound 0.253 µM) turned out to be 0.978; with ALW-II-49-7 + Foretinib (first compound 0.8 µM), 0.96; in the experiment with ALW-II-49-7 + Foretinib (first compound 2.53 µM) it was 1.03; with ALW-II-49-7 + Foretinib (first compound 8 µM), 0.931; in the experiment with ALW-II-49-7 + Linsitinib (first compound 0.08 µM), 1.02; with ALW-II-49-7 + Linsitinib (first compound 0.253 µM), 0.934. In addition, the relative viability in the experiment with ALW-II-49-7 + Linsitinib (first compound 0.8 µM) turned out to be 1.1; with ALW-II-49-7 + Linsitinib (first compound 2.53 µM), 1.18; with ALW-II-49-7 + Linsitinib (first compound 8 µM), 1.13; in the experiment with XMD13-2 + AZD7762 (first compound 0.05 µM), 1.01; with XMD13-2 + AZD7762 (first compound 0.1581 µM), 0.973; with XMD13-2 + AZD7762 (first compound 0.5 µM), 1.1. Besides, the relative viability is 1 with XMD13-2 + AZD7762 (first compound 1.581 µM) and 0.899 with XMD13-2 + AZD7762 (first compound 5 µM).

With PC-3 [JPC-3], the relative viability with Dasatinib + Pictilisib (first compound 0.005 µM) was 0.881; with Dasatinib + Pictilisib (first compound 0.01581 µM) it was 0.676; with Dasatinib + Pictilisib (first compound 0.05 µM), 0.734; with Dasatinib + Pictilisib (first compound 0.1581 µM), 0.706; with Dasatinib + Pictilisib (first compound 0.5 µM), 0.317; with ALW-II-49-7 + Foretinib (first compound 0.08 µM), 0.995. Moreover, the relative viability amounted to 1.09 with ALW-II-49-7 + Foretinib (first compound 0.253 µM); 1.01 with ALW-II-49-7 + Foretinib (first compound 0.8 µM); 1.01 with ALW-II-49-7 + Foretinib (first compound 2.53 µM); 1.02 in the experiment with ALW-II-49-7 + Foretinib (first compound 8 µM); 1.01 with ALW-II-49-7 + Linsitinib (first compound 0.08 µM); 0.914 with ALW-II-49-7 + Linsitinib (first compound 0.253 µM). Moreover, the relative viability with ALW-II-49-7 + Linsitinib (first compound 0.8 µM) was determined as 0.935; in the experiment with ALW-II-49-7 + Linsitinib (first compound 2.53 µM), 0.995; with ALW-II-49-7 + Linsitinib (first compound 8 µM) it was 0.952; with XMD13-2 + AZD7762 (first compound 0.05 µM) it was 0.818; in the experiment with XMD13-2 + AZD7762 (first compound 0.1581 µM), 0.868; with XMD13-2 + AZD7762 (first compound 0.5 µM), 0.9. In addition, the relative viability with XMD13-2 + AZD7762 (first compound 5 µM) came to 0.718.

For the cell line PC-14, the relative viability with Dasatinib + Pictilisib (first compound 0.005 µM) was determined as 0.631; with Dasatinib + Pictilisib (first compound 0.01581 µM), 0.458; with Dasatinib + Pictilisib (first compound 0.05 µM) it was 0.529; with Dasatinib + Pictilisib (first compound 0.1581 µM), 0.232; with Dasatinib + Pictilisib (first compound 0.5 µM), 0.0479; with ALW-II-49-7 + Foretinib (first compound 0.08 µM), 0.935. In addition, the relative viability amounted to 0.634 with ALW-II-49-7 + Foretinib (first compound 0.253 µM); 0.841 in the experiment with ALW-II-49-7 + Foretinib (first compound 0.8 µM); 0.924 with ALW-II-49-7 + Foretinib (first compound 2.53 µM); 0.89 with ALW-II-49-7 + Foretinib (first compound 8 µM); 0.933 with ALW-II-49-7 + Linsitinib (first compound 0.08 µM); 0.821 in the experiment with ALW-II-49-7 + Linsitinib (first compound 0.253 µM). Moreover, the relative viability was found to be 0.933 in the experiment with ALW-II-49-7 + Linsitinib (first compound 0.8 µM); 0.979 with ALW-II-49-7 + Linsitinib (first compound 2.53 µM); 0.94 with ALW-II-49-7 + Linsitinib (first compound 8 µM); 0.392 with XMD13-2 + AZD7762 (first compound 0.05 µM); 0.337 in the experiment with XMD13-2 + AZD7762 (first compound 0.1581 µM); 0.464 with XMD13-2 + AZD7762 (first compound 0.5 µM). In addition, the relative viability with XMD13-2 + AZD7762 (first compound 1.581 µM) stood at 0.329; with XMD13-2 + AZD7762 (first compound 5 µM) it was 0.446.

With RERF-LC-KJ, the relative viability worked out at 0.543 in the experiment with Dasatinib + Pictilisib (first compound 0.005 µM); 0.518 with Dasatinib + Pictilisib (first compound 0.01581 µM); 0.53 with Dasatinib + Pictilisib (first compound 0.05 µM); 0.398 in the experiment with Dasatinib + Pictilisib (first compound 0.1581 µM); 0.403 with Dasatinib + Pictilisib (first compound 0.5 µM); 0.84 in the experiment with ALW-II-49-7 + Foretinib (first compound 0.08 µM). The relative viability worked out at 0.874 in the experiment with ALW-II-49-7 + Foretinib (first compound 0.253 µM); 0.941 with ALW-II-49-7 + Foretinib (first compound 0.8 µM); 0.933 with ALW-II-49-7 + Foretinib (first compound 2.53 µM); 0.902 in the experiment with ALW-II-49-7 + Foretinib (first compound 8 µM); 0.884 with ALW-II-49-7 + Linsitinib (first compound 0.08 µM); 0.898 in the experiment with ALW-II-49-7 + Linsitinib (first compound 0.253 µM). Moreover, the relative viability with ALW-II-49-7 + Linsitinib (first compound 0.8 µM) was found to be 0.873; with ALW-II-49-7 + Linsitinib (first compound 2.53 µM) it was 0.905; in the experiment with ALW-II-49-7 + Linsitinib (first compound 8 µM) it was 0.888; in the experiment with XMD13-2 + AZD7762 (first compound 0.05 µM), 1.07; in the experiment with XMD13-2 + AZD7762 (first compound 0.1581 µM), 0.874; with XMD13-2 + AZD7762 (first compound 0.5 µM) it was 1.22. Besides, the relative viability was 0.922 in the experiment with XMD13-2 + AZD7762 (first compound 1.581 µM) and 0.956 with XMD13-2 + AZD7762 (first compound 5 µM).
